Experimental data taken from PubChem BioAssay AID1963830 (Molecular Pharmacology Branch, DTP, NCI, 2024).
pIC50: −log10 of the molar value.

Test system: 922993-354-T-J3-PDC complex spheroid viability
Assay: Anticancer human tumor 922993-354-T-J3-PDC patient-derived endometrial carcinoma cell line growth inhibition [POLQ]
Details: for pIC50: curve of first compound; for viability, T/C: stronger effect = lower value
Procedure, shortened: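 Complex spheroid viability model combining PDC tumour cells with endothelial (HUVEC) and MSC stromal cells. Novobiocin, ART-558 or RP6685 were tested singly and in combination with standard and investigational anticancer drugs. Each was titrated in half-log steps from near clinical Cmax, or from 10 microM where Cmax was unknown.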

[1] = second compound 0.0316 µM, first compound 0.0316 µM
[2] = second compound 0.0316 µM, first compound 0.1 µM
[3] = second compound 0.0316 µM, first compound 0.316 µM
[4] = second compound 0.0316 µM, first compound 1 µM
[5] = second compound 0.0316 µM, first compound 3.16 µM
[6] = second compound 0.0316 µM, first compound 10 µM
[7] = second compound 0.1 µM, first compound 0.0316 µM
[8] = second compound 0.1 µM, first compound 0.1 µM
[9] = second compound 0.1 µM, first compound 0.316 µM
[10] = second compound 0.1 µM, first compound 1 µM
[11] = second compound 0.1 µM, first compound 3.16 µM
[12] = second compound 0.1 µM, first compound 10 µM
[13] = second compound 0.316 µM, first compound 0.0316 µM
[14] = second compound 0.316 µM, first compound 0.1 µM
[15] = second compound 0.316 µM, first compound 0.316 µM
[16] = second compound 0.316 µM, first compound 1 µM
[17] = second compound 0.316 µM, first compound 3.16 µM
[18] = second compound 0.316 µM, first compound 10 µM
[19] = second compound 1 µM, first compound 0.0316 µM
[20] = second compound 1 µM, first compound 0.1 µM
[21] = second compound 1 µM, first compound 0.316 µM
[22] = second compound 1 µM, first compound 1 µM
[23] = second compound 1 µM, first compound 3.16 µM
[24] = second compound 1 µM, first compound 10 µM
[25] = second compound 3.16 µM, first compound 0.0316 µM
[26] = second compound 3.16 µM, first compound 0.1 µM
[27] = second compound 3.16 µM, first compound 0.316 µM
[28] = second compound 3.16 µM, first compound 1 µM
[29] = second compound 3.16 µM, first compound 3.16 µM
[30] = second compound 3.16 µM, first compound 10 µM
[31] = second compound 10 µM, first compound 0.0316 µM
[32] = second compound 10 µM, first compound 0.1 µM
[33] = second compound 10 µM, first compound 0.316 µM
[34] = second compound 10 µM, first compound 1 µM
[35] = second compound 10 µM, first compound 3.16 µM
[36] = second compound 10 µM, first compound 10 µM
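Note: spheroids exposed to the agents for one week.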
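Throughout, for viability, T/C: 100% = DMSO vehicle control wells.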

Compound: C=CC(=O)N1CCN(c2nc(=O)n(-c3c(C)ccnc3C(C)C)c3nc(-c4c(O)cccc4F)c(F)cc23)C(C)C1 (centres undefined) + Cc1cccc(N(C)C(=O)C2C(O)CCN2c2nc(C)cc(C(F)(F)F)c2C#N)c1
- pIC50 (second compound 0.0316 µM): < 5.00
- pIC50 (second compound 0.1 µM): < 5.00
- pIC50 (second compound 0.316 µM): < 5.00
- pIC50 (second compound 1 µM): < 5.00
- pIC50 (second compound 3.16 µM): < 5.00
- pIC50 (second compound 10 µM): < 5.00
- viability, T/C [1]: 100%
- viability, T/C [2]: 105%
- viability, T/C [3]: 106%
- viability, T/C [4]: 113%
- viability, T/C [5]: 102%
- viability, T/C [6]: 93.2%
- viability, T/C [7]: 104%
- viability, T/C [8]: 103%
- viability, T/C [9]: 103%
- viability, T/C [10]: 108%
- viability, T/C [11]: 97.8%
- viability, T/C [12]: 102%
- viability, T/C [13]: 105%
- viability, T/C [14]: 99.2%
- viability, T/C [15]: 103%
- viability, T/C [16]: 104%
- viability, T/C [17]: 92.2%
- viability, T/C [18]: 96.8%
- viability, T/C [19]: 103%
- viability, T/C [20]: 95.2%
- viability, T/C [21]: 100%
- viability, T/C [22]: 102%
- viability, T/C [23]: 101%
- viability, T/C [24]: 105%
- viability, T/C [25]: 108%
- viability, T/C [26]: 103%
- viability, T/C [27]: 102%
- viability, T/C [28]: 98.9%
- viability, T/C [29]: 102%
- viability, T/C [30]: 106%
- viability, T/C [31]: 93.7%
- viability, T/C [32]: 101%
- viability, T/C [33]: 97.9%
- viability, T/C [34]: 99.8%
- viability, T/C [35]: 111%
- viability, T/C [36]: 112%

Compound: CC1COCCN1c1cc(C2(O)CC3CCC(C2)O3)c2cnn(-c3ccn[nH]3)c2n1 (centres undefined) + Cc1cccc(N(C)C(=O)C2C(O)CCN2c2nc(C)cc(C(F)(F)F)c2C#N)c1
- pIC50 (second compound 0.0316 µM): 6.36
- pIC50 (second compound 0.1 µM): 6.34
- pIC50 (second compound 0.316 µM): 6.24
- pIC50 (second compound 1 µM): 6.29
- pIC50 (second compound 3.16 µM): 6.41
- pIC50 (second compound 10 µM): 6.78
- viability, T/C [1]: 104%
- viability, T/C [2]: 77%
- viability, T/C [3]: 61.6%
- viability, T/C [4]: 33.6%
- viability, T/C [5]: 10.6%
- viability, T/C [6]: 8.67%
- viability, T/C [7]: 109%
- viability, T/C [8]: 93.7%
- viability, T/C [9]: 63.9%
- viability, T/C [10]: 23.2%
- viability, T/C [11]: 10.3%
- viability, T/C [12]: 10.8%
- viability, T/C [13]: 110%
- viability, T/C [14]: 101%
- viability, T/C [15]: 75.5%
- viability, T/C [16]: 27.5%
- viability, T/C [17]: 11.6%
- viability, T/C [18]: 10.9%
- viability, T/C [19]: 97.3%
- viability, T/C [20]: 89.5%
- viability, T/C [21]: 67.9%
- viability, T/C [22]: 25.8%
- viability, T/C [23]: 9.46%
- viability, T/C [24]: 10.4%
- viability, T/C [25]: 101%
- viability, T/C [26]: 89.2%
- viability, T/C [27]: 57.1%
- viability, T/C [28]: 20.7%
- viability, T/C [29]: 8.74%
- viability, T/C [30]: 9.75%
- viability, T/C [31]: 101%
- viability, T/C [32]: 64.6%
- viability, T/C [33]: 32.5%
- viability, T/C [34]: 10.3%
- viability, T/C [35]: 8.71%
- viability, T/C [36]: 9.69%
